As a reminder, the EC50 is the concentration giving half of the maximal effect.

Active and inactive are the calls of the source. The calls are words filed in the database; no cut-off is given here. Numbered stars: 1 amine (or outer) side, 2 acyl side, 3 side chain; on linkers, the order of the positions; unused ones are H or OH. Square brackets hold non-standard residues; d marks the D form. Side chains are listed from the residue outwards. Peptide text beside a SMILES is read from it. * marks the point of attachment. C20 diacid = O=C(O)CCCCCCCCCCCCCCCCCCC(=O)*; C18 diacid = O=C(O)CCCCCCCCCCCCCCCCC(=O)*; γGlu = O=C(O)[C@H](CCC(=O)[*:2])N[*:1]; Palmitoyl = CCCCCCCCCCCCCCCC(=O)*; AEEA = NCCOCCOCC(=O)O; Aib = CC(C)(N)C(=O)O

For experiment [1], the system named is Mus musculus. Put plainly: Reduction in body weight in DIO mouse at 30 nmol/kg, sc treated every 2 and half day once measured after 21 days. In kind it is functional. The arrangement: scale not given: the % may be the effect or the level left.
The subject of experiment [2] is Mus musculus. Put plainly: Hypoglycemic effect in ICR mouse treated with 3 g/kg glucose assessed as reduction in blood glucose level at 30 nmol/kg, sc measured upto 120 mins pretreated with GLP-1R antagonist by OGTT. It is filed as functional, organism-based.
Experiment [3] relates to Mus musculus. In words: Reduction in serum AST in DIO mouse at 30 nmol/kg, sc treated every 2 and half day once measured after 21 days. In kind it is functional, organism-based. The note with it: time 21.0 day.
Experiment [4] deals with Mus musculus. Put plainly: Anorexigenic effect in ICR mouse assessed as decrease in food intake at 30 nmol/kg, sc measured upto 72 hrs by acute food intake study. In kind it is functional, organism-based.
Experiment [5] deals with Mus musculus. In words: Antihyperglycemic effect in DIO mouse assessed as antihyperglycemic duration by measuring blood glucose at 30 nmol/kg, sc administered twice daily measured by hypoglycemic duration assay. In kind it is functional, organism-based.
In experiment [6] the test system is Mus musculus. Put plainly: Reduction in serum ALT in DIO mouse at 30 nmol/kg, sc treated every 2 and half day once measured after 21 days. It is filed as functional, organism-based. Conditions: time 21.0 day.
Experiment [7] deals with Mus musculus. In words: Hypoglycemic effect in ICR mouse treated with 3 g/kg glucose assessed as reduction in blood glucose level at 100 nmol/kg, sc measured upto 120 mins by acute glucose lowering test. It is filed as functional, organism-based.
Experiment [8] addresses T1, Glucagon receptor (Homo sapiens, UniProt P47871). In words: Agonist activity at human GCGR expressed in HEK293 cells assessed as cAMP level by measuring relative percent (glucagon EC50/compound EC50) measured after 60 mins by HTRF based assay relative to glucagon. In kind it is functional, cell-based. Background: Cyclic AMP is a second messenger, typically raised through Gs and lowered through Gi signalling.

Experiment [9] addresses T2, Glucagon-like peptide 1 receptor (Homo sapiens, UniProt P43220). In words: Agonist activity at human GLP-1 receptor expressed in HEK293 cells assessed as cAMP level by measuring relative percent (GLP-1 EC50/compound EC50) measured after 60 mins by HTRF based assay relative to GLP-1. In kind it is functional, cell-based. Conditions: filed as agonist.
Experiment [10] concerns the target T3, Gastric inhibitory polypeptide receptor (Homo sapiens) (UniProt P48546).
T3 sequence (whole entry): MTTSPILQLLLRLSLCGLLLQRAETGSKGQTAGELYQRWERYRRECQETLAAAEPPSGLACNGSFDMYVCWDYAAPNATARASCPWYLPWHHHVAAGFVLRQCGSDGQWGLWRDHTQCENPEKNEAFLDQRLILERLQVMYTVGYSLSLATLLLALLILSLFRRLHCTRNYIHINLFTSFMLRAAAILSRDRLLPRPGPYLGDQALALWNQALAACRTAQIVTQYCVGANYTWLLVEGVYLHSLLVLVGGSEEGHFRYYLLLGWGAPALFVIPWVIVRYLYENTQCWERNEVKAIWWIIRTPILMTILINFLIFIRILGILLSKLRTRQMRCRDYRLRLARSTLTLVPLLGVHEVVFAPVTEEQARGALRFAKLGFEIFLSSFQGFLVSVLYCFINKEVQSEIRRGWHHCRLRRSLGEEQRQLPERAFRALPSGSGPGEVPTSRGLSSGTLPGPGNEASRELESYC
Put plainly: Agonist activity at human GIPR receptor expressed in HEK293 cells assessed as cAMP level by measuring relative percent (GIP EC50/compound EC50) measured after 60 mins by HTRF based assay relative to GIP. It is filed as functional, cell-based.

Experiment [11] concerns the target T2, Glucagon-like peptide 1 receptor. Put plainly: Agonist activity at human GLP-1 receptor expressed in HEK293 cells assessed as cAMP level measured after 60 mins by HTRF based assay. It is filed as functional, cell-based.
Experiment [12] has as its target T1, Glucagon receptor. In words: Agonist activity at human GCGR expressed in HEK293 cells assessed as cAMP level measured after 60 mins by HTRF based assay. In kind it is functional, cell-based.
Experiment [13] has as its target T4, Gastric inhibitory polypeptide receptor (Homo sapiens, UniProt P48546).
T4 sequence (P48546 whole entry): T3 sequence (whole entry)
In words: Agonist activity at human GIPR receptor expressed in HEK293 cells assessed as cAMP level measured after 60 mins by HTRF based assay. In kind it is functional, cell-based.

For experiment [14], the system named is Mus musculus. In words: Antihyperglycemic effect in non-fasted DIO mouse assessed as decrease in blood glucose at 30 nmol/kg, sc measured upto 48 hrs. It is filed as functional, organism-based.
Experiment [15] deals with Mus musculus. In words: Hypoglycemic effect in ICR mouse treated with 3 g/kg glucose assessed as reduction in blood glucose level at 30 nmol/kg, sc measured upto 120 mins pretreated with GLP-1R and GIPR antagonist by OGTT. It is filed as functional, organism-based.
The test system of experiment [16] is Mus musculus. In words: Anorexigenic effect in ICR mouse assessed as decrease in food intake at 30 nmol/kg, sc measured at 48 hrs by acute food intake study. In kind it is functional, organism-based.
Experiment [17] deals with Mus musculus. Put plainly: Reduction in feed intake in DIO mouse at 30 nmol/kg, sc treated twice a day measured after 21 days. The note with it: time 21.0 day. It is filed as functional, organism-based.

T2 sequence (P43220 whole entry): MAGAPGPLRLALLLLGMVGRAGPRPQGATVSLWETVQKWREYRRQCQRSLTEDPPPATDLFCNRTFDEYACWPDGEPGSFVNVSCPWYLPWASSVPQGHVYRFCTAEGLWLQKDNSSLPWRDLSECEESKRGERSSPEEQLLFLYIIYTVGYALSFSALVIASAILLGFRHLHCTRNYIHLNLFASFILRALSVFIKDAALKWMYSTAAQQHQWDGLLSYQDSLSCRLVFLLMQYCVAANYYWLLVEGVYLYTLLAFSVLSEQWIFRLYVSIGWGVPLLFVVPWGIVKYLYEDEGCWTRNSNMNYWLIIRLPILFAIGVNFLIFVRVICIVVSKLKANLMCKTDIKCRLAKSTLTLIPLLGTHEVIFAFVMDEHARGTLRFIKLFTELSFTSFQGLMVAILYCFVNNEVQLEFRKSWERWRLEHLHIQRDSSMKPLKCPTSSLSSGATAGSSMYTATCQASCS
T1 sequence (P47871 whole entry): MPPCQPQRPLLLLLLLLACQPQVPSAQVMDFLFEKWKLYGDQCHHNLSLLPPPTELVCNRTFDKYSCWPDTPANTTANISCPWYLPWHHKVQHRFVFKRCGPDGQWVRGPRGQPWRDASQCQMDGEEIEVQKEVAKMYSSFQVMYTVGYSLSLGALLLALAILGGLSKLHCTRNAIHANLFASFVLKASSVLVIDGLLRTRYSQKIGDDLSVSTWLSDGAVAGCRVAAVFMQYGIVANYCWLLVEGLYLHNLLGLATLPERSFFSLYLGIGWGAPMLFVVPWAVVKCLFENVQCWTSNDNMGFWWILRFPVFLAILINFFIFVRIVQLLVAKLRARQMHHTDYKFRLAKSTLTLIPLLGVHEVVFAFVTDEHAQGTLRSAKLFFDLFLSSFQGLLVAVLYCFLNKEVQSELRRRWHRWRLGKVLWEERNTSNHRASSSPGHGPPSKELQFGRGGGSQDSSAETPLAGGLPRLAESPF

Take SEMAGLUTIDE: in the experiment on Mus musculus [1] (time 21.0 day), the Activity was found to be 18.6%. The outcome with Mus musculus [2] was inactive. The result with Mus musculus [3], in the experiment with Mus musculus [4], in the experiment on Mus musculus [5], with Mus musculus [6] and in the experiment on Mus musculus [7] was Active.

`CC[C@H](C)[C@H](NC(=O)[C@H](CCCCNC(=O)COCCOCCNC(=O)COCCOCCNC(=O)CC[C@H](NC(=O)CCCCCCCCCCCCCCCCCCC(=O)O)C(=O)O)NC(=O)[C@H](CCC(=O)O)NC(=O)[C@H](CCSC)NC(=O)[C@H](C)NC(=O)[C@H](CCCNC(=N)N)NC(=O)[C@H](CO)NC(=O)[C@H](CCSC)NC(=O)[C@H](CC(=O)O)NC(=O)[C@H](CO)NC(=O)[C@@H](NC(=O)[C@H](Cc1ccccc1)NC(=O)[C@@H](NC(=O)CNC(=O)[C@H](CCC(N)=O)NC(=O)C(C)(C)NC(=O)[C@@H](N)Cc1c[nH]cn1)[C@@H](C)O)[C@@H](C)O)C(=O)N[C@@H](C)C(=O)N[C@H](C(=O)N[C@@H](CCCNC(=N)N)C(=O)N[C@@H](CC(C)C)C(=O)N[C@@H](Cc1ccccc1)C(=O)N[C@H](C(=O)N[C@@H](CC(=O)O)C(=O)N[C@@H](Cc1c[nH]c2ccccc12)C(=O)N[C@@H](CC(C)C)C(=O)N[C@H](C(=O)N[C@@H](CCC(=O)O)C(=O)NCC(=O)NCC(=O)N1CCC[C@H]1C(=O)N[C@@H](CO)C(=O)N[C@@H](CO)C(=O)NCC(=O)N[C@@H](C)C(=O)N1CCC[C@H]1C(=O)N1CCC[C@H]1C(=O)N1CCC[C@H]1C(=O)N[C@@H](CO)C(N)=O)[C@@H](C)CC)C(C)C)C(C)C` (H-H[Aib]QGTFTSDMSRAMEK([AEEA-AEEA-γGlu-C20 diacid])IAVRLFVDWLIEGGPSSGAPPPS-NH2): the values for the Activity (on Glucagon receptor [8]; in experiment [9]; in experiment [10]) were 12%, 265% and 3%, respectively. In addition, the values for the EC50 (in experiment [11]; on Glucagon receptor [12]; in experiment [13]) were 0.02 nM, 0.8 nM and 0.89 nM, respectively.

Turning to `CCCCCCCCCCCCCCCC(=O)N[C@@H](CCC(=O)NCCCC[C@H](NC(=O)[C@H](C)NC(=O)[C@H](C)NC(=O)[C@H](CCC(=O)O)NC(=O)[C@H](CCC(=O)O)NC(=O)[C@H](CCC(=O)O)NC(=O)[C@H](CC(C)C)NC(=O)[C@H](Cc1ccc(O)cc1)NC(=O)[C@H](CO)NC(=O)[C@H](CO)NC(=O)[C@H](CCSC)NC(=O)[C@H](CC(=O)O)NC(=O)[C@H](CO)NC(=O)[C@@H](NC(=O)[C@H](Cc1ccccc1)NC(=O)[C@@H](NC(=O)CNC(=O)[C@H](CC(=O)O)NC(=O)C(C)(C)NC(=O)[C@@H](N)Cc1c[nH]cn1)[C@@H](C)O)[C@@H](C)O)C(=O)N[C@@H](CCC(=O)O)C(=O)N[C@@H](Cc1ccccc1)C(=O)N[C@H](C(=O)N[C@@H](CC(=O)O)C(=O)N[C@@H](Cc1c[nH]c2ccccc12)C(=O)N[C@@H](CC(C)C)C(=O)N[C@H](C(=O)N[C@@H](CCCCN)C(=O)NCC(=O)N[C@@H](CCCNC(=N)N)C(=O)N1CCC[C@H]1C(=O)N[C@@H](C)C(N)=O)[C@@H](C)CC)C(C)C)C(=O)O` (H-H[Aib]DGTFTSDMSSYLEEEAAK([γGlu-Palmitoyl])EFVDWLIKGRPA-NH2), the outcome in the experiment on Mus musculus [14] was inactive. In addition, in experiment [11], the 50% effective concentration (EC50) turned out to be 0.021 nM.

`CC[C@H](C)[C@H](NC(=O)[C@H](CCCCNC(=O)COCCOCCNC(=O)COCCOCCNC(=O)CC[C@H](NC(=O)CCCCCCCCCCCCCCCCC(=O)O)C(=O)O)NC(=O)[C@H](CCC(=O)O)NC(=O)[C@H](CC(C)C)NC(=O)[C@H](C)NC(=O)[C@H](CCCNC(=N)N)NC(=O)[C@H](CO)NC(=O)[C@H](CC(C)C)NC(=O)[C@H](CC(=O)O)NC(=O)[C@H](CO)NC(=O)[C@@H](NC(=O)[C@H](Cc1ccccc1)NC(=O)[C@@H](NC(=O)CNC(=O)[C@H](CCC(N)=O)NC(=O)C(C)(C)NC(=O)[C@@H](N)Cc1c[nH]cn1)[C@@H](C)O)[C@@H](C)O)C(=O)N[C@@H](C)C(=O)N[C@@H](C)C(=O)N[C@@H](CCCNC(=N)N)C(=O)N[C@@H](CC(C)C)C(=O)N[C@@H](Cc1ccccc1)C(=O)N[C@H](C(=O)N[C@@H](CCC(=O)O)C(=O)N[C@@H](Cc1c[nH]c2ccccc12)C(=O)N[C@@H](CC(C)C)C(=O)N[C@H](C(=O)N[C@@H](CCC(=O)O)C(=O)NCC(=O)NCC(=O)N1CCC[C@H]1C(=O)N[C@@H](CO)C(=O)N[C@@H](CO)C(=O)NCC(=O)N[C@@H](C)C(=O)N1CCC[C@H]1C(=O)N1CCC[C@H]1C(=O)N1CCC[C@H]1C(=O)N[C@@H](CO)C(N)=O)[C@@H](C)CC)[C@@H](C)CC` (H-H[Aib]QGTFTSDLSRALEK([AEEA-AEEA-γGlu-C18 diacid])IAARLFIEWLIEGGPSSGAPPPS-NH2): the figures for the Activity (at Glucagon receptor [8]; in [9]; in [10]) were 5%, 241% and 3%, respectively. Besides, the figures for the EC50 (in [11]; on Glucagon receptor [12]; in [13]) were 0.022 nM, 1.8 nM and 0.97 nM, respectively.

`CC[C@H](C)[C@H](NC(=O)[C@H](Cc1ccccc1)NC(=O)[C@H](C)NC(=O)C(C)(C)NC(=O)[C@H](CCC(N)=O)NC(=O)[C@H](C)NC(=O)[C@H](CCCCNC(=O)COCCOCCNC(=O)CC[C@H](NC(=O)CCCCCCCCCCCCCCCCCCC(=O)O)C(=O)O)NC(=O)[C@H](CCCCN)NC(=O)[C@H](CC(=O)O)NC(=O)[C@H](CC(C)C)NC(=O)[C@](C)(CC(C)C)NC(=O)[C@@H](NC(=O)[C@H](CO)NC(=O)[C@H](Cc1ccc(O)cc1)NC(=O)[C@H](CC(=O)O)NC(=O)[C@H](CO)NC(=O)[C@@H](NC(=O)[C@H](Cc1ccccc1)NC(=O)[C@@H](NC(=O)CNC(=O)[C@H](CCC(N)=O)NC(=O)C(C)(C)NC(=O)[C@@H](N)Cc1ccc(O)cc1)[C@@H](C)O)[C@@H](C)O)[C@@H](C)CC)C(=O)N[C@@H](CCC(=O)O)C(=O)N[C@@H](Cc1ccc(O)cc1)C(=O)N[C@@H](CC(C)C)C(=O)N[C@@H](CC(C)C)C(=O)N[C@@H](CCC(=O)O)C(=O)NCC(=O)NCC(=O)N1CCC[C@H]1C(=O)N[C@@H](CO)C(=O)N[C@@H](CO)C(=O)NCC(=O)N[C@@H](C)C(=O)N1CCC[C@H]1C(=O)N1CCC[C@H]1C(=O)N1CCC[C@H]1C(=O)N[C@@H](CO)C(N)=O` gave an Activity with Mus musculus [1] (time 21 day) of 38.5%. Further, in the experiment with Mus musculus [15], the outcome was inactive. Also, the outcome in the experiment on Mus musculus [3], with Mus musculus [16], with Mus musculus [17], with Mus musculus [4], in the experiment with Mus musculus [5] and in the experiment with Mus musculus [6] was Active. Moreover, in the experiment with Mus musculus [7], the result was Active. Besides, the EC50 in experiment [11] is 0.041 nM; at Glucagon receptor [12], 0.23 nM; in experiment [13], 0.022 nM.

Source of the values: ChEMBL document CHEMBL5532661, “Discovery of a Novel Glucagon-like Peptide-1 (GLP-1) Analogue from Bullfrog and Investigation of Its Potential for Designing GLP-1-Based Multiagonists” (J Med Chem, 2024).
